Values after ≈ are worked out from the molar mass of the structure shown.
Legend:
Escherichia coli [1] = experiment: Minimum inhibitory concentration against Escherichia coli 1507 E strain; assay type: functional
Salmonella typhimurium = experiment: Minimum inhibitory concentration against Salmonella Typhimurium; assay type: functional, Salmonella enterica subsp. enterica serovar Typhimurium; details: Salmonella enterica
Escherichia coli [2] = experiment: Minimum inhibitory concentration against Escherichia coli 078 strain; assay type: functional
Enterobacter cloacae = experiment: Minimum inhibitory concentration against Enterobacter cloacae 1321E strain; assay type: functional
Klebsiella aerogenes = experiment: Minimum inhibitory concentration against Klebsiella aerogenes 1522E strain; assay type: functional
Streptococcus pyogenes = experiment: Minimum inhibitory concentration against Streptococcus pyogenes 308A strain; assay type: functional
Pseudomonas aeruginosa [3] = experiment: Minimum inhibitory concentration against was determined against Pseudomonas aeruginosa 9027 strain; assay type: functional
Pseudomonas aeruginosa [4] = experiment: Minimum inhibitory concentration against Pseudomonas aeruginosa 1592E strain; assay type: functional
Pseudomonas aeruginosa [5] = experiment: Minimum inhibitory concentration against Pseudomonas aeruginosa 1771M strain; assay type: functional
Staphylococcus aureus [6] = experiment: Minimum inhibitory concentration against […] 285 strain; assay type: functional
Pseudomonas aeruginosa [7] = experiment: Minimum inhibitory concentration against Pseudomonas aeruginosa (n=60); (Range=0.06-128); assay type: functional
Klebsiella pneumoniae [8] = experiment: Minimum inhibitory concentration against Klebsiella pneumoniae (n=30); (Range = 0.015-0.06); assay type: functional
Moraxella catarrhalis [9] = experiment: Minimum inhibitory concentration against Moraxella catarrhalis (n=22); (Range=0.008-0.03); assay type: functional
Streptococcus pneumoniae [10] = experiment: Minimum inhibitory concentration against Streptococcus pneumoniae (n=22); (Range = 0.008-0.5); assay type: functional
[11] = Clearance value at a single intravenous administration of 5 mg/kg in dog; assay type: ADME, organism-based, Canis lupus familiaris; parameters: dose 5 mg/kg, route intravenous; details: in vivo
[12] = Clearance value at a single intravenous administration of 20 mg/kg in rat; assay type: ADME, organism-based; parameters: dose 20 mg/kg, route intravenous; details: in vivo
[13] = Area under concentration time at a single intravenous administration of 5 mg/kg in dog; assay type: ADME, organism-based, Canis lupus familiaris; parameters: dose 5 mg/kg, route intravenous; details: in vivo
[14] = Area under concentration time at a single intravenous administration of 20 mg/kg in rat; assay type: ADME, organism-based; parameters: dose 20 mg/kg, route intravenous; details: in vivo
Streptococcus pneumoniae [15] = experiment: Minimum inhibitory concentration against Streptococcus pneumoniae (n=22); (Range = 0.008-0.25); assay type: functional
Staphylococcus aureus [16] = experiment: Minimum inhibitory concentration against […] 503 strain; assay type: functional
Klebsiella pneumoniae [17] = experiment: Minimum inhibitory concentration against Klebsiella pneumoniae (n=30); (Range = 0.015-0.25); assay type: functional
Moraxella catarrhalis [18] = experiment: Minimum inhibitory concentration against Moraxella catarrhalis (n=22); (Range=0.015-0.06); assay type: functional
Streptococcus pneumoniae [19] = experiment: Minimum inhibitory concentration of the compound was determined against Streptococcus pneumoniae (n=22);(Range = 0.008-0.25); assay type: functional
[20] = Half life at a single intravenous administration of 5 mg/kg in dog; assay type: ADME, organism-based, Canis lupus familiaris; parameters: dose 5 mg/kg, route intravenous; details: in vivo
[21] = Half life at a single intravenous administration of 20 mg/kg in rat; assay type: ADME, organism-based; parameters: dose 20 mg/kg, route intravenous; details: in vivo
Moraxella catarrhalis [22] = experiment: Minimum inhibitory concentration against Moraxella catarrhalis (n=22); (Range=0.008-0.6); assay type: functional
Klebsiella pneumoniae [23] = experiment: Minimum inhibitory concentration against Klebsiella pneumoniae (n=30); (Range = 0.03-0.25); assay type: functional
Moraxella catarrhalis [24] = experiment: Minimum inhibitory concentration against Moraxella catarrhalis (n=22); (Range=0.008-0.06); assay type: functional
Pseudomonas aeruginosa [25] = experiment: Minimum inhibitory concentration against Pseudomonas aeruginosa (n=60); (Range=0.025-128); assay type: functional
Klebsiella pneumoniae [26] = experiment: Minimum inhibitory concentration against Klebsiella pneumoniae (n=30); (Range=[…]); assay type: functional
Klebsiella pneumoniae [27] = experiment: Minimum inhibitory concentration against Klebsiella pneumoniae (n=30); (Range=0.06-1); assay type: functional
Pseudomonas aeruginosa [28] = experiment: Minimum inhibitory concentration against Pseudomonas aeruginosa (n=60); (Range=0.5-128); assay type: functional
Moraxella catarrhalis [29] = experiment: Minimum inhibitory concentration against Moraxella catarrhalis (n=22); (Range=0.008-0.25); assay type: functional
Pseudomonas aeruginosa [30] = experiment: microbe, parasite or virus in culture
Moraxella catarrhalis [31] = experiment: microbe, parasite or virus in culture
Klebsiella pneumoniae [32] = experiment: Minimum inhibitory concentration against Klebsiella pneumoniae (n=30); (Range = […]); assay type: functional
Moraxella catarrhalis [33] = experiment: Minimum inhibitory concentration against Moraxella catarrhalis (n=22); (Range=0.008-0.12); assay type: functional
Pseudomonas aeruginosa [34] = experiment: Minimum inhibitory concentration against Pseudomonas aeruginosa (n=60); (Range=1-128); assay type: functional
Klebsiella pneumoniae [35] = experiment: Minimum inhibitory concentration against Klebsiella pneumoniae (n=30); (Range=0.008-1); assay type: functional
Moraxella catarrhalis [36] = experiment: Minimum inhibitory concentration against Moraxella catarrhalis (n=22); (Range = 0.008-0.12); assay type: functional
Streptococcus pneumoniae [37] = experiment: Minimum inhibitory concentration against Streptococcus pneumoniae (n=22); (Range=0.008-1); assay type: functional

Compound | MIC (Escherichia coli [1]) [µg/mL] | MIC (Salmonella typhimurium) [µg/mL] | MIC (Escherichia coli [2]) [µg/mL] | MIC (Enterobacter cloacae) [µg/mL] | MIC (Klebsiella aerogenes) [µg/mL] | MIC (Streptococcus pyogenes) [µg/mL] | MIC (Pseudomonas aeruginosa [3]) [µg/mL] | MIC (Pseudomonas aeruginosa [4]) [µg/mL] | MIC (Pseudomonas aeruginosa [5]) [µg/mL] | MIC (Staphylococcus aureus [6]) [µg/mL] | MIC50 (Pseudomonas aeruginosa [7]) [µg/mL] | MIC90 (Pseudomonas aeruginosa [7]) [µg/mL] | MIC50 (Streptococcus pneumoniae [10]) [µg/mL] | MIC90 (Streptococcus pneumoniae [10]) [µg/mL] | clearance [11] [mL/min/kg] | clearance [12] [mL/min/kg] | AUC [13] [ng·h/mL] | AUC [14] [ng·h/mL] | MIC90 (Streptococcus pneumoniae [15]) [µg/mL] | MIC (Staphylococcus aureus [16]) [µg/mL] | also measured
C[C@@H](O)[C@H]1C(=O)N2C(C(=O)O)=C(S[C@@H]3CN[C@H](C(=O)N(C)C)C3)[C@H](C)[C@H]12 [MEROPENEM] | 0.025 (≈ 0.0652 µM) | 0.049 (≈ 0.128 µM) | 0.025 (≈ 0.0652 µM) | 0.025 (≈ 0.0652 µM) | 0.049 (≈ 0.128 µM) | 0.013 (≈ 0.0339 µM) | 0.195 (≈ 0.509 µM) | 0.195 (≈ 0.509 µM) | 0.049 (≈ 0.128 µM) | 0.195 (≈ 0.509 µM) | 2 (≈ 5.22 µM) | 16 (≈ 41.7 µM) | 0.5 (≈ 1.3 µM) | 0.5 (≈ 1.3 µM) | 7 | 52 | 11600 | 6380 |  |  | MIC50 (Klebsiella pneumoniae [8]): 0.03 µg/mL (≈ 0.0782 µM); MIC90 (Klebsiella pneumoniae [8]): 0.06 µg/mL (≈ 0.156 µM); MIC50 (Moraxella catarrhalis [9]): 0.008 µg/mL (≈ 0.0209 µM); MIC90 (Moraxella catarrhalis [9]): 0.008 µg/mL (≈ 0.0209 µM)
C[C@@H](O)[C@H]1C(=O)N2C(C(=O)O)=C(S[C@@H]3CN[C@H](/C=C/c4cc(C(=O)[O-])no4)C3)[C@H](C)[C@H]12.[Na+] | 0.025 | 0.049 | 0.013 | 0.025 | 0.049 | 0.049 | 0.195 | 0.195 | 0.049 | 0.195 | 4 | 64 |  |  | 6 | 13 | 14400 | 25300 | 0.12 | 0.195 | MIC50 (Klebsiella pneumoniae [17]): 0.03 µg/mL; MIC90 (Klebsiella pneumoniae [17]): 0.12 µg/mL; MIC50 (Moraxella catarrhalis [18]): 0.03 µg/mL; MIC90 (Moraxella catarrhalis [18]): 0.06 µg/mL; MIC50 (Streptococcus pneumoniae [19]): 0.008 µg/mL; half-life [20]: 41 min; half-life [21]: 12 min
CC1C(S[C@@H]2CN[C@H](/C=C/c3ccno3)C2)=C(C(=O)O)N2C(=O)[C@H]([C@@H](C)O)[C@@H]12 (single isomer, unassigned) | 0.025 (≈ 0.0617 µM) | 0.049 (≈ 0.121 µM) | 0.025 (≈ 0.0617 µM) | 0.025 (≈ 0.0617 µM) | 0.049 (≈ 0.121 µM) | 0.004 (≈ 0.00986 µM) | 0.195 (≈ 0.481 µM) | 0.195 (≈ 0.481 µM) | 0.098 (≈ 0.242 µM) | 0.049 (≈ 0.121 µM) |  |  |  |  | 27 | 18 | 3100 | 18900 | 0.12 (≈ 0.296 µM) | 0.098 (≈ 0.242 µM) | MIC90 (Moraxella catarrhalis [22]): 0.03 µg/mL (≈ 0.074 µM); MIC50 (Streptococcus pneumoniae [15]): 0.03 µg/mL (≈ 0.074 µM); MIC50 (Klebsiella pneumoniae [23]): 0.06 µg/mL (≈ 0.148 µM); MIC90 (Klebsiella pneumoniae [23]): 0.12 µg/mL (≈ 0.296 µM); MIC50 (Moraxella catarrhalis [24]): 0.015 µg/mL (≈ 0.037 µM); MIC50 (Pseudomonas aeruginosa [25]): 8 µg/mL (≈ 19.7 µM); MIC90 (Pseudomonas aeruginosa [25]): 64 µg/mL (≈ 158 µM); half-life [20]: 23 min; half-life [21]: 16 min
C[C@@H](O)[C@H]1C(=O)N2C(C(=O)O)=C(S[C@@H]3CN[C@H](/C=C/c4cc(C(=O)[O-])on4)C3)[C@H](C)[C@H]12.[Na+] | 0.025 | 0.049 | 0.025 | 0.025 | 0.049 | 0.007 | 0.195 | 0.391 | 1.56 | 0.195 |  |  |  |  |  |  |  |  |  | 0.098 | 
C[C@@H](O)[C@H]1C(=O)N2C(C(=O)O)=C(SCCNC=N)C[C@H]12 [IMIPENEM ANHYDROUS] | 0.098 (≈ 0.327 µM) | 0.781 (≈ 2.61 µM) | 0.098 (≈ 0.327 µM) | 0.098 (≈ 0.327 µM) | 0.195 (≈ 0.651 µM) | 0.004 (≈ 0.0134 µM) | 0.391 (≈ 1.31 µM) | 0.781 (≈ 2.61 µM) | 0.195 (≈ 0.651 µM) | 0.013 (≈ 0.0434 µM) |  |  | 0.12 (≈ 0.401 µM) | 0.25 (≈ 0.835 µM) |  |  |  |  |  | 0.098 (≈ 0.327 µM) | MIC90 (Klebsiella pneumoniae [26]): 0.5 µg/mL (≈ 1.67 µM); MIC50 (Klebsiella pneumoniae [27]): 0.12 µg/mL (≈ 0.401 µM); MIC50 (Pseudomonas aeruginosa [28]): 2 µg/mL (≈ 6.68 µM); MIC50 (Moraxella catarrhalis [29]): 0.06 µg/mL (≈ 0.2 µM); MIC90 (Pseudomonas aeruginosa [30]): 16 µg/mL (≈ 53.4 µM); MIC90 (Moraxella catarrhalis [31]): 0.06 µg/mL (≈ 0.2 µM)
C[C@@H](O)[C@H]1C(=O)N2C(C(=O)O)=C(S[C@@H]3CN[C@H](C(=O)Nc4cccc(C(=O)O)c4)C3)[C@H](C)[C@H]12 [ERTAPENEM] |  |  |  |  |  |  |  |  |  |  |  |  |  |  |  |  |  |  |  |  | MIC90 (Klebsiella pneumoniae [32]): 0.5 µg/mL (≈ 1.05 µM); MIC90 (Moraxella catarrhalis [33]): 0.03 µg/mL (≈ 0.0631 µM); MIC50 (Pseudomonas aeruginosa [34]): 32 µg/mL (≈ 67.3 µM); MIC90 (Pseudomonas aeruginosa [34]): 128 µg/mL (≈ 269 µM); MIC50 (Klebsiella pneumoniae [35]): 0.03 µg/mL (≈ 0.0631 µM); MIC50 (Moraxella catarrhalis [36]): 0.015 µg/mL (≈ 0.0315 µM); MIC50 (Streptococcus pneumoniae [37]): 0.5 µg/mL (≈ 1.05 µM); MIC90 (Streptococcus pneumoniae [37]): 1 µg/mL (≈ 2.1 µM)
